Like-named read-outs stand apart in the source and are kept apart here.

These results are taken from US20020122830A1, “Method for the treatment of a soil containing soilborne pathogens” (priority 2000, published 2002).

The test system of test [1] is V. dahliae microsclerotia. The test is described as follows: Viability of V. dahliae microsclerotia buried in amended soil (test tube bioassay). Type of test: cell-based, Verticillium dahliae. The following applies: for Ammonia level in soil coinciding with a rapid loss in the viability of microsclerotia: soil amended with MBM or SM. The procedure: The viability of V. dahliae microsclerotia retrieved from soil was determined using the following experimental model system. […] Microsclerotia suspended in crushed silica sand was added to a nylon pouch which was then buried in the soil or suspended in the head space of each tube. Water was added to each tube to bring soil moisture to 0.33 bar tension. The tubes were then loosely capped, and placed in the dark at 24° C. On each date of analysis, the nylon pouches were retrieved and an Anderson air sampler used to impact the pouch contents onto a medium (soil-pectate-tergitol) selective for growth of V. dahliae. […] The levels of NH3, NO2^− and NO3^− in soil were determined at each sample date. […] The slurry was once again mechanically disrupted and its pH determined. The slurry was centrifuged and supernatant analyzed for total (NH3+NH4^+), (NHO2+NO2^−) and NO3^− using an ion chromatograph.

Test [2] has as its system V. dahliae MS. The following applies: sealer jars, 30 mL solution, four days, room temperature.
Protocol: Exposure of V. dahliae MS to HNO2 gas was done using a similar procedure described above. To sealer jars (250 mL), 50 mL of a prepared solution of NaNO2 in citric acid solution was added. A V. dahliae MS bag was suspended in the atmosphere of the jar. The jar was sealed, and placed at 24° C. in the dark for 4 days. Thereafter the bags were retrieved and the viability of V. dahliae MS determined. This experiment was repeated and done in triplicate.
Various amounts of HNO2 in atmosphere were subjected to microsclerotia by suspending microsclerotia in sealer jars containing 30 mL of citric acid HNO2 buffer solution and incubated in the dark at room temperature for four days.
Test [3] concerns V. dahliae MS.
Protocol: The germination of V. dahliae MS was determined using a setup similar to that described above for exposure of V. dahliae MS to NH3 in buffered solution. Exceptions being various amounts of 0.270 M NaNO2 stock solution were added (from 0 to 2.0 mL) to 40 mL of 0.02 M citric acid solution (set to pH 5.0 with NaOH (Perrin and Dempsey 1974)) and brought to 50 mL volume with the same citric acid solution. All experiments were done in triiplicate and repeated. Solutions were filter sterilized and 15 mL placed into sterile screw cap tubes (total capacity 15.5 mL). Immediately, V. dahliae MS were added to each tube, the tube closed, placed at 24° C. and in the dark and inverted twice daily. At 8 hours, 1 and 4 days, V. dahliae MS viability was determined. The concentration of HNO2 in solutions was estimated as described below. The effect of NO2^− on survival of V. dahliae MS was tested by adding various amounts of NaNO2 (0 to 53 mM NO2^−) to citric acid buffer and pH set to 4.0, 5.0 and 6.0. The effect of type of NO2^− salt on survival of V. dahliae MS was tested by adding KNO2 or NaCl instead of NaNO2 to citric acid buffer (set to pH 5.0). […]
Various concentrations of HNO2 were generated in citric acid buffer solution at pH 4.0, 5.0 or 6.0 with NaNO2 added. […] Microsclerotia survival was determined as described previously for NH3 in glycine buffer.
The test system of test [4] is V. dahliae MS. Particulars: glycine buffer pH 8.6, exposure of four days.
Protocol: Various concentrations of NH3 were generated in glycine or tricine buffer solution at pH 8.6 with NH4Cl or (NH4)2SO4 added. A 15 mL test tube was filled with appropriate buffer and NH4^+ solution, microsclerotia added, the tube capped, then placed in the dark at 24° C. and the tubes inverted daily to suspend the microsclerotia in solution. Microsclerotia survival was determined by emptying contents of the tube into a Buchner funnel, the microsclerotia being retained on Whatman #42 filter paper, rinsed with distilled water, transferred to SPT medium by placing the filter paper in contact with the agar medium and removed leaving the microsclerotia adhering to the medium.
The final volume was brought to 50 mL with the same glycine solution. Solutions were then sterilized by filtration through a 0.22 um pore size filter and 15 mL placed into three replicate sterile screw cap tubes (total capacity 15.5 mL) About 200 V. dahliae MS were immediately added to each tube and the tube closed and placed at 24° C. and in the dark. Tubes were inverted every 12 hours to mix and suspend V. dahliae MS in the solution. […] At 8 hours, 1 and 4 days, the contents of each tube was passed onto a Buchner funnel containing sterile filter paper (Whatman #42). […] The viability of V. dahliae MS was determined as the percentage of MS forming colonies out of 50 counted per replicate dish. […]
The test system of test [5] is V. dahliae MS. Particulars: agar medium, germination recorded two weeks later.
Protocol: NH3 was generated in SPT medium by addition of various concentrations of NH4Cl to the medium and varying the pH of the medium (7, 7.6, 8 and 8.5). Immediately following cooling and hardening of the medium, 25 microsclerotia per Petri dish were transferred individually with a needle and germination recorded two weeks later.
Various amountes of NH4Cl salt (to 0, 25, 50, 100 and 200 mM) was added to soil peclate medium (SPT) and the pH of the medium adjusted to 7.0, 7.6, 8.0 or 8.5 by addition of 5 M NaOH. For each level of NH4Cl and pH, three replicate dishes were poured. The agar was allowed to solidify for 2 hours and immediately thereafter 25 V. dahliae MS were individually transferred to each dish using a sterile hypodermic needle. The dishes were wrapped with Parafilm (American National Can, Neenah Wis.) to limit loss of NH3 by volatilization, and incubated for two weeks at 24° C. in the dark. The viability of V. dahliae MS was determined as percent of total MS forming colonies. The concentration of NH3 in medium was estimated as described below and ranged from 0 to 31 mM. The pH of medium after hardening and two weeks after incubation was tested using pH test strips (ColorpHast pH 5-10; EM Science, Gibbstown N.J.) and was within 0.5 units (limit of resolution of the test strips) of that set at the start.

For the compound `N.O` [NH4OH, ammonium hydroxide], the “addition sufficient to induce levels of NH3 sufficient to kill microsclerotia” value in test [1] (Thorndale or Beauseart soil, incubated four days (data not shown)) is on record as “about 1800 mg NH4OH—N kg^−1”.

As to `O=NO` [HNO2, nitrous acid], in the test on V. dahliae MS [2], the “HNO2 solution concentration above which suspended microsclerotia died in atmosphere” value is reported as 0.10 mM. Moreover, in the test on V. dahliae MS [3], the “HNO2 concentration sufficient to kill all microsclerotia” value is “about 0.025 mM” and the “calculated HNO2 concentration required to kill all microsclerotia” value was “above 0.10 mM”.

Turning to `N` [NH3, Ammonia], the “NH3 concentration preventing germination of microsclerotia” value with V. dahliae MS [4] is “greater than 5 mM”; in the test on V. dahliae MS [5], greater than 3 mM. The “NH3 accumulation consistently accompanied with a rapid decline in the viability of microsclerotia in soil” value in test [1] (in soil) was “greater than 10 mM”. Also, the “Ammonia level in soil coinciding with a rapid loss in the viability of microsclerotia” value is greater than 20 mM in test [1] and greater than 65 mg N kg^−1 soil in test [1] (listed as Ammonia).

Consider `N.N.O=S(=O)(O)O` [(NH4)2SO4], for which the “kill of microsclerotia” value in test [1] (400 or 800 mg N kg^−1, air-dried Beauseart soil stored 1.5 years) is “failed to accumulate HNO2 and kill microsclerotia”; in test [1] (400 or 800 mg N kg^−1, recently collected Mackenzie soil), “death of microsclerotia”.
